Measurements published in PubChem BioAssay AID2060902 (Molecular Pharmacology Branch, DTP, NCI, 2025).
Where “and” joins values, the source holds several entries; their conditions need not be identical. Identical values can stand only once.

Test system: 485368-065-R3-J5-PDC spheroids with HUVEC/MSC, viability
Assay: Anticancer human tumor 485368-065-R3-J5-PDC patient-derived pancreatic carcinoma cell line growth inhibition [RAS]
Settings: for viability, T/C: stronger effect = lower value
In short: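 Multi-cell-type spheroids: tumor cells plus HUVEC endothelial cells and mesenchymal stem cells. RAS-pathway inhibitors were combined with targeted agents, each dosed in half-log steps down from clinical Cmax, or from 10 microM when Cmax was unknown.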

[1] = curve of first compound, second compound 0.000949 µM
[2] = curve of first compound, second compound 0.003 µM
[3] = curve of first compound, second compound 0.00949 µM
[4] = curve of first compound, second compound 0.03 µM
[5] = curve of first compound, second compound 0.0949 µM
[6] = curve of first compound, second compound 0.3 µM
[7] = second compound 0.000949 µM, first compound 0.0316 µM
[8] = second compound 0.000949 µM, first compound 0.1 µM
[9] = second compound 0.000949 µM, first compound 0.316 µM
[10] = second compound 0.000949 µM, first compound 1 µM
[11] = second compound 0.003 µM, first compound 0.0316 µM
[12] = second compound 0.003 µM, first compound 0.1 µM
[13] = second compound 0.003 µM, first compound 0.316 µM
[14] = second compound 0.003 µM, first compound 1 µM
[15] = second compound 0.00949 µM, first compound 0.0316 µM
[16] = second compound 0.00949 µM, first compound 0.1 µM
[17] = second compound 0.00949 µM, first compound 0.316 µM
[18] = second compound 0.00949 µM, first compound 1 µM
[19] = second compound 0.03 µM, first compound 0.0316 µM
[20] = second compound 0.03 µM, first compound 0.1 µM
[21] = second compound 0.03 µM, first compound 0.316 µM
[22] = second compound 0.03 µM, first compound 1 µM
[23] = second compound 0.0949 µM, first compound 0.0316 µM
[24] = second compound 0.0949 µM, first compound 0.1 µM
[25] = second compound 0.0949 µM, first compound 0.316 µM
[26] = second compound 0.0949 µM, first compound 1 µM
[27] = second compound 0.3 µM, first compound 0.0316 µM
[28] = second compound 0.3 µM, first compound 0.1 µM
[29] = second compound 0.3 µM, first compound 0.316 µM
[30] = second compound 0.3 µM, first compound 1 µM
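Further: spheroids exposed to agents for seven days before readout.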

In the case of `Nc1ccn(C2OC(CO)C(O)C2(F)F)c(=O)n1` (stereo not given) + CCn1c(-c2cccnc2C(C)OC)c2c3cc(ccc31)N1CCOC(CC(NC(=O)C(C(C)C)N(C)C(=O)C3(F)CCN(C(=O)C#CC(C)(C)N(C)C)CC3)C(=O)N3CCCC(N3)C(=O)OCC(C)(C)C2)C1, the IC50 [1] is reported as 7.04 nM, the IC50 [2] is reported as 6.7 nM and the IC50 [3] is reported as 9.21 nM. It also gave an IC50 [4] of 6.7 nM, an IC50 [5] of 6.84 nM and an IC50 [6] of 6.66 nM. For the same compound, the viability, T/C (second compound 0.000949 µM, first compound 0.00316 µM) was 94.9%, the viability, T/C (second compound 0.000949 µM, first compound 0.01 µM) was 30.4% and the viability, T/C [7] was 11.6%. The viability, T/C [8] was 11%, the viability, T/C [9] was 14.4% and the viability, T/C [10] was 11.8%. The viability, T/C (second compound 0.003 µM, first compound 0.00316 µM) was 89.2%, the viability, T/C (second compound 0.003 µM, first compound 0.01 µM) was 29.2% and the viability, T/C [11] was 10.5%. For the same compound, the viability, T/C [12] was 9.86%, the viability, T/C [13] was 13.8% and the viability, T/C [14] was 13.4%. For the same compound, the viability, T/C (second compound 0.00949 µM, first compound 0.00316 µM) was 94.2%, the viability, T/C (second compound 0.00949 µM, first compound 0.01 µM) was 46.6% and the viability, T/C [15] was 11.3%. It also gave a viability, T/C [16] of 11.4%, a viability, T/C [17] of 11.3% and a viability, T/C [18] of 12.1%. For the same compound, the viability, T/C (second compound 0.03 µM, first compound 0.00316 µM) was 89.7%, the viability, T/C (second compound 0.03 µM, first compound 0.01 µM) was 28.8% and the viability, T/C [19] was 12.1%. For the same compound, the viability, T/C [20] was 12.9%, the viability, T/C [21] was 11.7% and the viability, T/C [22] was 10.4%. The viability, T/C (second compound 0.0949 µM, first compound 0.00316 µM) was 96.9%, the viability, T/C (second compound 0.0949 µM, first compound 0.01 µM) was 26.8% and the viability, T/C [23] was 11.9%. It also gave a viability, T/C [24] of 9.81%, a viability, T/C [25] of 12.7% and a viability, T/C [26] of 10.6%. It also gave a viability, T/C (second compound 0.3 µM, first compound 0.00316 µM) of 94%, a viability, T/C (second compound 0.3 µM, first compound 0.01 µM) of 25.7% and a viability, T/C [27] of 12.1%. It also gave a viability, T/C [28] of 11%, a viability, T/C [29] of 11.5% and a viability, T/C [30] of 9.33%.

With `CC(=O)OC12COC1CC(O)C1(C)C(=O)C(O)C3=C(C)C(OC(=O)C(O)C(NC(=O)OC(C)(C)C)c4ccccc4)CC(O)(C(OC(=O)c4ccccc4)C21)C3(C)C` (stereo not given) + CCn1c(-c2cc(N3CCN(C)CC3)cnc2C(C)OC)c2c3cc(ccc31)-c1csc(n1)CC(NC(=O)C1CC1C)C(=O)N1CCCC(N1)C(=O)OCC(C)(C)C2 the IC50 [1] was less than 31.6 nM, the IC50 [2] was less than 31.6 nM and the IC50 [3] was less than 31.6 nM. It also gave an IC50 [4] of less than 31.6 nM, an IC50 [5] of less than 31.6 nM and an IC50 [6] of less than 31.6 nM. The viability, T/C [7] was 11.7%, the viability, T/C [8] was 10.4% and the viability, T/C [9] was 12.1%. It also gave a viability, T/C [10] of 14.3%, a viability, T/C (second compound 0.000949 µM, first compound 3.16 µM) of 15.2% and a viability, T/C (second compound 0.000949 µM, first compound 10 µM) of 19.9%. For the same compound, the viability, T/C [11] was 10.7%, the viability, T/C [12] was 13.2% and the viability, T/C [13] was 12.2%. The viability, T/C [14] was 14.1%, the viability, T/C (second compound 0.003 µM, first compound 3.16 µM) was 15.3% and the viability, T/C (second compound 0.003 µM, first compound 10 µM) was 13.6%. The viability, T/C [15] was 9.77%, the viability, T/C [16] was 12.6% and the viability, T/C [17] was 10%. The viability, T/C [18] was 8.97%, the viability, T/C (second compound 0.00949 µM, first compound 3.16 µM) was 11.4% and the viability, T/C (second compound 0.00949 µM, first compound 10 µM) was 10.5%. The viability, T/C [19] was 7.89%, the viability, T/C [20] was 8.87% and the viability, T/C [21] was 8.33%. It also gave a viability, T/C [22] of 9.73%, a viability, T/C (second compound 0.03 µM, first compound 3.16 µM) of 10.6% and a viability, T/C (second compound 0.03 µM, first compound 10 µM) of 10.7%. For the same compound, the viability, T/C [23] was 7.57%, the viability, T/C [24] was 8.27% and the viability, T/C [25] was 7.87%. It also gave a viability, T/C [26] of 7.97%, a viability, T/C (second compound 0.0949 µM, first compound 3.16 µM) of 10.9% and a viability, T/C (second compound 0.0949 µM, first compound 10 µM) of 8.11%. The viability, T/C [27] was 7.3%, the viability, T/C [28] was 7.09% and the viability, T/C [29] was 7.44%. It also gave a viability, T/C [30] of 8.55%, a viability, T/C (second compound 0.3 µM, first compound 3.16 µM) of 10.2% and a viability, T/C (second compound 0.3 µM, first compound 10 µM) of 6.81%.

`CC(C)NCC(C(=O)N1CCN(c2ncnc3c2C(C)CC3O)CC1)c1ccc(Cl)cc1` (stereo not given) was tested, and the viability, T/C (compound 0.0316 µM) was 104% and 101% (2×) and 98.3%, the viability, T/C (compound 0.1 µM) was 100% [middle of 4 runs] and the viability, T/C (compound 0.316 µM) was 94.8% [middle of 4 runs]. The viability, T/C (compound 1 µM) was 86.2% [middle of 4 runs], the viability, T/C (compound 3.16 µM) was 77.1% [middle of 4 runs] and the viability, T/C (compound 10 µM) was 52.3% [middle of 4 runs]. For the same compound, the IC50 (curve of compound) was > 10000 nM and 8610 nM.

With `CCn1c(-c2cccnc2C(C)OC)c2c3cc(ccc31)N1CCOC(CC(NC(=O)C(C(C)C)N(C)C(=O)C3(F)CCN(C(=O)C#CC(C)(C)N(C)C)CC3)C(=O)N3CCCC(N3)C(=O)OCC(C)(C)C2)C1` (stereo not given) the viability, T/C (compound 0.000949 µM) was 102% [middle of 8 runs], the viability, T/C (compound 0.003 µM) was 103% [middle of 8 runs] and the viability, T/C (compound 0.00949 µM) was 102% [middle of 8 runs]. For the same compound, the viability, T/C (compound 0.03 µM) was 97.4% [middle of 8 runs], the viability, T/C (compound 0.0949 µM) was 98% [middle of 8 runs] and the viability, T/C (compound 0.3 µM) was 96.9% [middle of 8 runs]. The IC50 (compound alone, run of 07/09/2024) was greater than 300 nM.

With `C=CC(=O)N1CCN(c2nc(OCC3CCCN3C)nc3c(F)c(-c4nc(N)cc(C)c4C(F)(F)F)c(Cl)cc23)C(C)C1` (stereo not given) + C#Cc1c(F)ccc2cc(O)cc(-c3ncc4c(N5CC6CCC(C5)N6)nc(OCC56CCCN5CC(F)C6)nc4c3F)c12 the IC50 (curve of first compound, second compound 0.0316 µM) was greater than 1000 nM, the IC50 (curve of first compound, second compound 0.1 µM) was greater than 1000 nM and the IC50 (curve of first compound, second compound 0.316 µM) was greater than 1000 nM. The IC50 (curve of first compound, second compound 1 µM) was greater than 1000 nM, the IC50 (curve of first compound, second compound 3.16 µM) was 794 nM and the IC50 (curve of first compound, second compound 10 µM) was less than 3.16 nM. For the same compound, the viability, T/C (second compound 0.0316 µM, first compound 0.00316 µM) was 101%, the viability, T/C (second compound 0.0316 µM, first compound 0.01 µM) was 95.6% and the viability, T/C (second compound 0.0316 µM, first compound 0.0316 µM) was 112%. It also gave a viability, T/C (second compound 0.0316 µM, first compound 0.1 µM) of 106%, a viability, T/C (second compound 0.0316 µM, first compound 0.316 µM) of 100% and a viability, T/C (second compound 0.0316 µM, first compound 1 µM) of 107%. It also gave a viability, T/C (second compound 0.1 µM, first compound 0.00316 µM) of 102%, a viability, T/C (second compound 0.1 µM, first compound 0.01 µM) of 100% and a viability, T/C (second compound 0.1 µM, first compound 0.0316 µM) of 106%. The viability, T/C (second compound 0.1 µM, first compound 0.1 µM) was 101%, the viability, T/C (second compound 0.1 µM, first compound 0.316 µM) was 117% and the viability, T/C (second compound 0.1 µM, first compound 1 µM) was 110%. For the same compound, the viability, T/C (second compound 0.316 µM, first compound 0.00316 µM) was 105%, the viability, T/C (second compound 0.316 µM, first compound 0.01 µM) was 104% and the viability, T/C (second compound 0.316 µM, first compound 0.0316 µM) was 93.6%. For the same compound, the viability, T/C (second compound 0.316 µM, first compound 0.1 µM) was 98.5%, the viability, T/C (second compound 0.316 µM, first compound 0.316 µM) was 103% and the viability, T/C (second compound 0.316 µM, first compound 1 µM) was 101%. The viability, T/C (second compound 1 µM, first compound 0.00316 µM) was 94.3%, the viability, T/C (second compound 1 µM, first compound 0.01 µM) was 95.9% and the viability, T/C (second compound 1 µM, first compound 0.0316 µM) was 98.7%. It also gave a viability, T/C (second compound 1 µM, first compound 0.1 µM) of 97.6%, a viability, T/C (second compound 1 µM, first compound 0.316 µM) of 94.8% and a viability, T/C (second compound 1 µM, first compound 1 µM) of 72.1%. The viability, T/C (second compound 3.16 µM, first compound 0.00316 µM) was 89.7%, the viability, T/C (second compound 3.16 µM, first compound 0.01 µM) was 83.2% and the viability, T/C (second compound 3.16 µM, first compound 0.0316 µM) was 81.7%. It also gave a viability, T/C (second compound 3.16 µM, first compound 0.1 µM) of 72.3%, a viability, T/C (second compound 3.16 µM, first compound 0.316 µM) of 71.2% and a viability, T/C (second compound 3.16 µM, first compound 1 µM) of 44.4%. For the same compound, the viability, T/C (second compound 10 µM, first compound 0.00316 µM) was 38.1%, the viability, T/C (second compound 10 µM, first compound 0.01 µM) was 40.3% and the viability, T/C (second compound 10 µM, first compound 0.0316 µM) was 38.3%. For the same compound, the viability, T/C (second compound 10 µM, first compound 0.1 µM) was 41.7%, the viability, T/C (second compound 10 µM, first compound 0.316 µM) was 36.5% and the viability, T/C (second compound 10 µM, first compound 1 µM) was 36.6%.
